According to US5969098A, “Yeast-toxin-related protein for antimicrobial vaccine and sterilizing preservative use” (CyberChemics, Inc., priority 1997, dated 1999):
Where no end group is shown, it is not given here.

Test system: human red blood cells
Test: hemolysis of human red blood cells in whole blood (extracellular hemoglobin, spectrophotometric)
Type: cell-based
Conditions: human red blood cells exposed in whole blood, peptide concentration 63 ug/mL
Description: Table III lists the approximate pharmacokinetics of synthetic peptides described in the present invention which solubilize readily, persist in conformationally active secondary structures in vivo, and induce lysis of representative bacteria, yeast and fungi. These determinations derive from optical density readings (O.D.) and rely on spectrophotometric absorbance from known initial concentrations as reference standards. It is worth noting that although the peptide antimicrobials show 30+% homology with the yeast killer toxin beta subunit fragment, they have very favorable safety profiles on mammalian cells. For example, when human red blood cells are exposed in whole blood to SEQ. […] Perhaps, as significant, the safety profile derives from very specific amino acid substitutions, since substitution for less than 20% of the amino acids in SEQ. 1 renders SEQ. 2 hemolytic to 20% at 63 ug/mL and 35% substitution in SEQ. 1 renders SEQ. 3 hemolytic to 100%. Therefore, sequence identity and variation translate directly to the functional balance between microbial inhibition and mammalian safety. The optimal therapeutic index for dosage and effective antimicrobial inhibition of a particular polypeptide or salt thereof follow routinely without elaborate laboratory determinations by those skilled in the art of pharmacokinetics and metabolic pathways using, for instance, various cytochrome and liver enzymes in vivo.

Sequence	hemolysis
LLLLKKLLKLMNLLKKLGHY [SEQ. 3]	100%
LLLLKLLLKKNPKLKKLIGV [SEQ. 2]	20%
LVLLKKLMKKYKKLKKLGGL [SEQ. 1]	no hemolysis is detectable
